Results taken from patent publication US9999687B2, “Fluorescent imaging agents” (VisEn Medical, Inc., priority 2008, dated 2018).
[ ]: non-standard residue; d: D form. The star is where a group is joined. YPEG 2×20 kDa = Y-shaped PEG of 2×20 kDa; Pent4ynoyl = C#CCCC(=O)*; F5 = not defined here; F6 = not defined here; βAla = NCCC(=O)O

Tests used:
[1] = target: T1, Recombinant human Cathepsin B (Homo sapiens, UniProt P07858); test: Enzyme activation profile of Q65, Cathepsin B; format: biochemical; settings: probe 0.5 μM, enzyme 0.05 μM, room temperature, monitored 0-24 hours; FIG. 5
T1 construct: purchased R&D Systems
Experimental: The reactions were performed with appropriate buffer at room temperature in a 96-well plate with a final assay volume of 250 μL and probe and enzyme concentrations of 0.5 μM and 0.05 μM, respectively. The buffer for Cathepsin B was 25 mM MES (pH 5.0), 1 mM DTT. Recombinant human Cathepsin B (R&D Systems) was activated in buffer of 25 mM MES (pH 5.0) and 5 mM DTT for 15 minutes at room temperature. Recombinant human Cathepsin L (R&D Systems) was activated in buffer of 50 mM MES (pH 6.0), 5 mM DTT, for 15 minutes on ice. Recombinant mouse Cathepsin Z (R&D Systems) was activated in buffer of 25 mM NaOAc (pH 3.0), 5 mM DTT for 5 minutes at room temperature. The buffer for plasmin (CalBiochem) and trypsin (Sigma) was PBS at pH 7.4.
The plate was incubated at room temperature and the activity monitored at 0, 1, 3, 5, and 24 hours with a Gemini (Molecular Devices) plate reader at excitation wavelength 663 nm, emission 690 nm, and cut off 665 nm. The activity was calculated as the fold of activation by comparing the fluorescence of the enzyme with probe to the fluorescence of probe alone.

[2] = tested on: inflamed atherosclerotic plaques of high cholesterol fed apoE-/- mice; test: Cardiovascular disease imaging, fluorescence reflectance; format: in vivo; settings: 2 nmol, 24 hours post-injection, ex vivo fluorescence reflectance imaging; FIG. 8
Experimental: High cholesterol fed apoE−/− mice were injected with 2 nmol of imaging agent and in vivo imaging was performed with ex vivo fluorescence reflectance imaging.

trypsin = test: Enzyme activation of R22, trypsin; format: biochemical; settings: 0.5 μM R22, 0.05 μM enzyme, room temperature, 24 hours; FIG. 13
Experimental: (§1) Activation by recombinant enzymes was carried out in 250 μL volumes set up in 96 well plates. MMPs were activated prior to the reaction according to manufacturers' protocols. Reactions contained 0.5 μM of R22 and 0.05 μM of activated enzyme in the appropriate activation buffer for each enzyme and incubated at room temperature for 24 hours. The plates were read at 24 hours with excitation/emission wavelength 740/770 nm. Fluorescence readings were performed using a Gemini (Molecular Devices) Fluorescence Plate Reader. Wells in which no enzyme was added were used as controls. Fold activation was obtained by dividing the enzyme-activated read-out (in relative fluorescence units) by its corresponding control well.

recombinant human MMP-13 = target: T2, recombinant human MMP-13 (Homo sapiens, UniProt P45452); test: Enzyme activation of R22, MMP-13; format: biochemical; settings: 0.5 μM R22, 0.05 μM enzyme, room temperature, 24 hours; FIG. 13
T2 construct: purchased
Experimental: as §1

[3] = tested on: Cathepsin B, Cathepsin K, Cathepsin L, or Cathepsin S; test: Enzyme activation profiles of R51 to R59, cathepsins; format: biochemical; settings: compound 0.5 uM, enzyme 0.05 uM, monitored for 24 hours; FIG. 15
Experimental: Compounds at a concentration of 0.5 uM were incubated with Cathepsin B, Cathepsin K, Cathepsin L, or Cathepsin S at a concentration of 0.05 uM. The reaction buffers used were as follows: Cathepsin K—50 mM MES, pH 5.0, 2.5 mM EDTA, 2.5 mM DTT; Cathepsin B—25 mM MES, pH 5.0, 1 mM DTT; Cathepsin S—50 mM NaOAc, pH 4.5, 5 mM DTT, 0.25M NaCl; Cathepsin L—50 mM MES, pH 6, 5 mM DTT. The activity was monitored for 24 hours with a Gemini (Molecular Devices) fluorescence plate reader at excitation 663 nm and emission 690 nm with a cut off of […].

[4] = tested on: atherosclerotic plaque in ApoE -/- knockout mice; test: Imaging of macrophage activity in atherosclerotic plaque; format: in vivo; settings: intravenous, 6 hours post-injection
Experimental: Age-matched C57BL6 wild type female mice (Charles river Laboratories) were fed a normal diet and ApoE −/− knockout female mice (Jackson Laboratories) were fed a high cholesterol diet for 10-20 weeks. The mice were injected intravenously with compounds of formula R51 ([mPEG-20kDa-Suc]-Lys(F6)-Gly-Phe-Leu-Gly-Lys(F6)-[NH2]) (SEQ ID NO:435) and R55 ([mPEG-20kDa-Suc]-Lys(F6)-Arg-Arg-Lys(F6)-[NH2]) (SEQ ID NO:438). The mice were then imaged at 6 and 24 hours by fluorescence molecular tomography or fluorescence reflectance using an FMT2500 (VisEn Medical, Bedford, Mass.).

[5] = tested on: carrageenan induced paw edema; test: Inflammation imaging, carrageenan induced paw edema; format: in vivo, BALB/c female mice; settings: 1% carrageenan subcutaneously, fluorescence molecular tomography; FIG. 9
Experimental: Briefly, BALB/c female mice 6-8 weeks old (Charles River Laboratory, Wilmington, Mass.) were injected subcutaneously with a 1% solution of carrageenan in PBS. After 1 minute post-injection, mice were injected the imaging agent Q91. Imaging was conducted at various time points using a Fluorescence Molecular Tomography system (VisEn Medical, Woburn Mass.).

Pentynoyl-Lys(F5)-Gly-Phe-Leu-Gly-βAla-Lys(F5)-PEG20kDa (Pent4ynoyl-K(F5)GFLG[βAla]K(F5)-PEG20kDa; reading uncertain; also: printed as Pentynoyl-Lys(F5)-Gly-Phe-Leu-Gly-βAla-Lys(F5)-PEG20kDa) [Agent Q65]
activation by Cathepsin B (fold of activation) [1]: activated by Cathepsin B
fluorescence in atherosclerotic plaques [2]: Fluorescence was detected in plaque-laden vascular sections in the aortic root, the arch and carotid arteries

[F6]-Gly-Pro-Leu-Gly-Val-Arg-Lys(F6)-[YPEG 2×20 kDa] (F6-GPLGVRK(F6)-{YPEG 2×20 kDa}; reading uncertain; also: printed as [F6]-Gly-Pro-Leu-Gly-Val-Arg-Lys(F6)-[YPEG 2×20 kDa]) [Agent R22]
activation by trypsin (fold activation) (trypsin): activated primarily
activation by recombinant human MMP-13 (fold activation) (recombinant human MMP-13): activated primarily

[mPEG-20kDa-Suc]-Lys(F6)-Gly-Phe-Leu-Gly-Lys(F6)-[NH2] ({mPEG‑20kDa‑Suc}-K(F6)GFLGK(F6)-NH2; reading uncertain; also: printed as [mPEG-20kDa-Suc]-Lys(F6)-Gly-Phe-Leu-Gly-Lys(F6)-[NH2]) [Agent R51]
activation by various Cathepsin proteases compared with the other imaging agents [3]: greater than that of the other imaging agents
fluorescent signal in ApoE knockout mice versus wild type controls ([4]; fluorescence molecular tomography, FIG. 17): greater fluorescent signal in the ApoE knockout mice over controls
fluorescent signal in ApoE knockout mice versus wild type controls ([4]; tomography and reflectance, FIG. 16): greater fluorescent signal in the ApoE knockout mice over controls

Pentynoyl-Lys(F5)-Pro-Leu-Gly-Val-Arg-Lys(F5)-PEG20kDa (Pent4ynoyl-K(F5)PLGVRK(F5)-PEG20kDa; reading uncertain; also: printed as Pentynoyl-Lys(F5)-Pro-Leu-Gly-Val-Arg-Lys(F5)-PEG20kDa) [Agent Q91]
fluorescence in carrageenan injected paw versus control paw [5]: significantly more fluorescence is observed in the mouse paw injected with carrageenan compared to the control paw
